Here are results for one compound from patent US11360080B2, “AhR-ROR-γt complex as a biomarker and therapeutic target for autoimmune disease and IL-17A-associated disease” (NATIONAL HEALTH RESEARCH INSTITUTES, priority 2018, dated 2022).

The test system of experiment [1] is splenic T cells (Th17 differentiation). Kind of experiment: In vitro Th17 differentiation, flow cytometry of IL-17A-producing CD4+ T cells. It counts as cell-based, mouse. The note with it: 1 or 5 μM during differentiation. The procedure:
(§1) (A) Flow cytometry of IL-17A-producing CD4^+ T cells. Splenic T cells were co-treated with verteporfin (C1) (1 or 5 μM) during Th17 differentiation in vitro. (B) Flow cytometry of IL-17A-producing CD4^+ T cells. Murine in vitro differentiated Th17 cells were stimulated with PMA plus ionomycin and co-treated with verteporfin (C1) (1 or 5 μM) for 30 min. (C) Flow cytometry of Foxp3-producing […] T cells. Splenic T cells were co-treated with verteporfin (C1) (5 μM) during Treg differentiation in vitro. (D) Flow cytometry of Foxp3-producing CD4^+ T cells, which were differentiated from CD4^+ T cells of wild-type or Lck-GLK transgenic mice.
CD4^+ splenic T cells were purified from mice. Cells (5×10^5) were cultured in 1 ml RPMI medium in 48-well plates coated with anti-CD3 (2 μg/ml) and anti-CD28 (3 μg/ml) antibodies. For Th17 differentiation, splenic CD4^+ cells were cultured in the medium containing IL-23 recombinant proteins (50 ng/ml, R&D), IL-6 recombinant proteins (20 ng/ml, R&D), TGF-β recombinant proteins (5 ng/ml, R&D), anti-IL-4 (5 μg/ml, Biolegend), and anti-IFN-γ (5 μg/ml, Biolegend) antibodies. For Th1 differentiation, CD4^+ splenic cells were cultured in the medium containing IL-12 recombinant proteins (5 ng/ml, R&D) and anti-IL-4 antibodies (1 μg/ml, Biolegend).
(Flow cytometry measures light scatter and fluorescence of single cells or particles in a stream.)

For experiment [2], the system named is splenic T cells (Treg differentiation). Nature of the experiment: In vitro Treg differentiation, flow cytometry of Foxp3-producing CD4+ T cells. It counts as cell-based, mouse. The note with it: 5 μM. On the procedure: as §1
Another experiment relates to Lck-GLK Tg mice. Kind of experiment: Treatment of Lck-GLK Tg mice, serum ELISA. It counts as in vivo, mouse. The note with it: 0.556 nmole/g i.v. every 3 days for 30 days. An excerpt: (A to C) Effect of the GLK inhibitor C1 (verteporfin) administration (0.556 nmole/g every 3 days for 30 days) on serum IL-17A and autoantibodies in Lck-GLK Tg mice. (B) ELISA of indicated serum cytokines in Lck-GLK Tg mice treated with C1 (verteporfin) or PBS. (C) ELISA of serum autoantibodies in Lck-GLK Tg mice treated with C1 (verteporfin) or PBS. Means±SEM are shown. (D) Experimental autoimmune encephalomyelitis (EAE) induction in wild-type mice treated with PBS, or the GLK inhibitor C1 (verteporfin) and C2. Clinical scores are presented on a scale of 1 to 5 (left panel). ELISA of IL-17A in the sera from MOG-immunized mice at day 16 (right panel). (E) Collagen-induced arthritis (CIA) induction in wild-type mice treated with the GLK inhibitor C1 (verteporfin) or PBS. Clinical scores are presented on a scale of 1 to 16 (left panel). ELISA of IL-17A in the sera from collagen-immunized mice at day 28. […]
Serum levels of IL-1β, IL-4, IL-6, IL-12, IL-17F, IL-21, IL-22, IL-23, IFN-γ, TNF-α, and TGF-β were analyzed by individual ELISA kits purchased from eBioscience. The IL-17A levels were determined using an ELISA kit from Biolegend. The serum levels of anti-nuclear antibodies (ANA), anti-dsDNA antibody, and rheumatoid factor (RF) were analyzed by ELISA kits purchased from Alpha Diagnostic International. […]
Background: In an ELISA, binding on a coated surface is turned into a signal by an enzyme label.

A further experiment deals with CIA in wild-type mice. Nature of the experiment: Collagen-induced arthritis (CIA) induction in wild-type mice. It counts as in vivo, mouse. The source says: (A to C) Effect of the GLK inhibitor C1 (verteporfin) administration (0.556 nmole/g every 3 days for 30 days) on serum IL-17A and autoantibodies in Lck-GLK Tg mice. (B) ELISA of indicated serum cytokines in Lck-GLK Tg mice treated with C1 (verteporfin) or PBS. (C) ELISA of serum autoantibodies in Lck-GLK Tg mice treated with C1 (verteporfin) or PBS. Means±SEM are shown. (D) Experimental autoimmune encephalomyelitis (EAE) induction in wild-type mice treated with PBS, or the GLK inhibitor C1 (verteporfin) and C2. Clinical scores are presented on a scale of 1 to 5 (left panel). ELISA of IL-17A in the sera from MOG-immunized mice at day 16 (right panel). (E) Collagen-induced arthritis (CIA) induction in wild-type mice treated with the GLK inhibitor C1 (verteporfin) or PBS. Clinical scores are presented on a scale of 1 to 16 (left panel). ELISA of IL-17A in the sera from collagen-immunized mice at day 28. Means±SEM are shown. *, P value<0.05; **, P value<0.01; ***, P value<0.001 (two-tailed Student's […]). C1 denotes verteporfin; C2 denotes alexidine dihydrochloride.
Moreover, overproduction of autoantibodies in Lck-GLK Tg mice were also abolished by C1 (verteporfin) treatment (FIG. 10C). […] To further verify that the GLK inhibitors also works in IL-17A-mediated animal models, we challenged wild-type mice with C1 (verteporfin) or C2 (alexidine dihydrochloride) during EAE and CIA induction.

In another experiment the target is T1, AhR-RORγt complex (UniProt P35869+P51450).
T1 construct: expressed in transfected cells; host or cells: HEK293T
Kind of experiment: FRET assay of HEK293T cells co-transfected with CFP-AhR, YFP-RORγt and IKKβ plasmids. The format is cell-based. The note with it: IKKβ. The procedure:
(A) Luciferase activity of NF-κB-driven reporter assays in stable GLK-transfected CHO-K1 cells that were treated with or without the GLK inhibitor C1 (verteporfin) under the indicated concentration. The fold changes are presented relative to the value of vector control. (B) Recombinant proteins of GLK kinase domain plus recombinant proteins of GST-tagged kinase-dead PKCθ (K409W) were subjected to in vitro kinase assays in the presence or absence of the GLK inhibitor C1 (verteporfin). Means±SD of are shown. *, P value<0.05; **, P value<0.01 (two-tailed Student's t-test). (C) The AhR-RORγt complex was inhibited by the GLK inhibitor. […] (D) Quantification of the PLA signals of (C). […]
FRET signal in live cells was detected by EnVision 2104 Multilabel Plate Reader (Perkin Elmer). The reaction was excited by light passing through a 430-nm filter (with 8 nm bandwidth), and the intensity of emitted fluorescence passing through a 530-nm filter (with 8 nm bandwidth) was recorded. If the protein-protein pair is in close proximity (1-10 nm), a 530-nm signal will be detected. The FRET efficiency was calculated using the following equation: FRET efficiency=((FRET−CFP×a−YFP×b)/YFP)×100%, where FRET, CFP, and YFP correspond to the fluorescent intensities acquired through FRET, CFP, and YFP filter sets, respectively; a and b are the donor emission and acceptor excitation crosstalk ratios, respectively. […]

T1 sequence (P35869 11-848): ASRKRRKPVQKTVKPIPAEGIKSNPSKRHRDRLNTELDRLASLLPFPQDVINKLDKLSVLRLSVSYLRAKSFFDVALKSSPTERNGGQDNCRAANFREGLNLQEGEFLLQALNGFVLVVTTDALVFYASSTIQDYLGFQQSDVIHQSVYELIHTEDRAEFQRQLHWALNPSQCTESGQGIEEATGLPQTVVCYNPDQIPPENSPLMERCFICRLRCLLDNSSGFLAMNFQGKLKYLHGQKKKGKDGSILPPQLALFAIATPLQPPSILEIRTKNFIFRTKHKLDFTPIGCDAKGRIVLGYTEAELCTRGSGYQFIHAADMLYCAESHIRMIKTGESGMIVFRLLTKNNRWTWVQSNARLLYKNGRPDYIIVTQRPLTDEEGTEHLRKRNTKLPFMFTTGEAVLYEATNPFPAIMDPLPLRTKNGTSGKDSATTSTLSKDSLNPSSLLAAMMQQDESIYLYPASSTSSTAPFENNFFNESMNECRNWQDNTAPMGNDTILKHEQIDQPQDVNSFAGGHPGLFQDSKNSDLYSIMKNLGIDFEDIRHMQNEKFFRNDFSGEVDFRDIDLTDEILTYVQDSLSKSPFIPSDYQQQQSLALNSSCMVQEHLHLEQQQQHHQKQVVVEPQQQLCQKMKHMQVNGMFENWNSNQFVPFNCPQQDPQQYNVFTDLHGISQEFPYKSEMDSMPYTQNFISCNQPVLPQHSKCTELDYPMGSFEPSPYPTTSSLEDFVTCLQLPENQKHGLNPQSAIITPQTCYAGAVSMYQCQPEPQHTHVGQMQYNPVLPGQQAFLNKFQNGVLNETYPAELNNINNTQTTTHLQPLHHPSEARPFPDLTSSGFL
T1 sequence (P51450 1-495 isoform P51450-2 T331K): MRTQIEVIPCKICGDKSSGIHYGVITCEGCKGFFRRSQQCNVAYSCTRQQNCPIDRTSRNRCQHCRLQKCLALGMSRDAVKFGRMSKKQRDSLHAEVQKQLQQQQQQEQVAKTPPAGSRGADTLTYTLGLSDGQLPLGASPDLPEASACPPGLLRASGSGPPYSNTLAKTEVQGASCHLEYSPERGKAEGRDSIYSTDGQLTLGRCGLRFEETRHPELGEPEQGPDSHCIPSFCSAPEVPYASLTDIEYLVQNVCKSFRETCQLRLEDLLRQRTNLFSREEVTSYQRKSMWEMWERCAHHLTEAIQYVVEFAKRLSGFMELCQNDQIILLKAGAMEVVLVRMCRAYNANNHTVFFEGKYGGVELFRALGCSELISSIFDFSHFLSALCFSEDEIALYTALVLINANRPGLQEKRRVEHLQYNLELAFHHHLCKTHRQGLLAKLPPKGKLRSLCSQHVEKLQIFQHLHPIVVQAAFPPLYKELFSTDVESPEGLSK

Turning to `C=Cc1c(C)c2cc3nc(cc4[nH]c(cc5nc(cc1[nH]2)C(C)=C5CCC(=O)O)c(CCC(=O)OC)c4C)[C@@]1(C)C3=CC=C(C(=O)OC)[C@H]1C(=O)OC` [C1, verteporfin], the Th17 differentiation result in experiment [1] is reported as “inhibited”. Further, the “in vitro Treg (Foxp3-expressing CD4+ T cell) differentiation” value in experiment [2] is given as “enhanced”. Besides, the overproduction of autoantibodies entry in the experiment with Lck-GLK Tg mice is given as “abolished”. The “serum IL-17A levels” value in the experiment with Lck-GLK Tg mice (vs PBS) was “significantly decreased”. In addition, in the experiment on CIA in wild-type mice (day 28), the “serum IL-17A levels in CIA” value was “inhibited”. Besides, the “disease severity (clinical score) in CIA” value in the experiment with CIA in wild-type mice (mouse, in vivo) is given as “inhibited”. Besides, on AhR-RORγt complex, the “FRET signals AhR-RORγt” value is recorded as “inhibited”.
